Results on 11 compounds are retold here after patent US20240269139A1, “COMPOUNDS FOR TARGETED PROTEIN DEGRADATION OF KINASES” (DANA-FARBER CANCER INSTITUTE, INC., priority 2020, published 2024).

Values joined by “and” are separate entries in the source; they are usually repeats but may differ in a detail not shown here. Identical values can stand only once. Like-named read-outs stand apart in the source and are kept apart here.

Common to all, as to type: cell-based
In assay [1] the target is protein kinases (human kinome) (Homo sapiens, UniProt P53667). The following applies: LIMK1 (P53667-1).
Assay [2] has as its target T1, protein kinases (human kinome) (Homo sapiens, UniProt O94768).
T1 sequence (O94768 1-372): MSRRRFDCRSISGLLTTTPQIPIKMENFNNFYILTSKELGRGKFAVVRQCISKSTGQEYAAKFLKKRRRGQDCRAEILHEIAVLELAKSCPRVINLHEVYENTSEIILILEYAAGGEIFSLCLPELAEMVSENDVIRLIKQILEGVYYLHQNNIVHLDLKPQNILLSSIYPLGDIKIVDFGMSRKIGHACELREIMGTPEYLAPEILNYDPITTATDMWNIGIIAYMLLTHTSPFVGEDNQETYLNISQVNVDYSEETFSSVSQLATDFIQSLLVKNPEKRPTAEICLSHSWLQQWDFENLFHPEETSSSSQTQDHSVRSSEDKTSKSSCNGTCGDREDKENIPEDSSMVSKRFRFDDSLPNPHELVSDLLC
The following applies: for logFC STK17B (O94768): direction down; for logFC: STK17B (O94768).

Assay [3] addresses protein kinases (human kinome) (Homo sapiens, UniProt Q00537). The following applies: for logFC of CDK17: Accession Q00537; for logFC CDK17 (Q00537): direction of change down.
Assay [4] has as its target protein kinases (human kinome) (Homo sapiens, UniProt Q16539). The settings on record: for logFC: MAPK14 (Q16539) protein abundance, degrader vs DMSO, down; for logFC MAPK14: MAPK14, accession Q16539, direction of change down.
Assay [5] has as its target protein kinases (human kinome) (Homo sapiens, UniProt P50613). The following applies: for logFC: CDK7 (P50613) protein abundance, degrader vs DMSO, down; for logFC CDK7: CDK7 P50613.
The target in assay [6] is T2, protein kinases (human kinome) (Homo sapiens, UniProt Q96L34).
T2 sequence (Q96L34 1-752): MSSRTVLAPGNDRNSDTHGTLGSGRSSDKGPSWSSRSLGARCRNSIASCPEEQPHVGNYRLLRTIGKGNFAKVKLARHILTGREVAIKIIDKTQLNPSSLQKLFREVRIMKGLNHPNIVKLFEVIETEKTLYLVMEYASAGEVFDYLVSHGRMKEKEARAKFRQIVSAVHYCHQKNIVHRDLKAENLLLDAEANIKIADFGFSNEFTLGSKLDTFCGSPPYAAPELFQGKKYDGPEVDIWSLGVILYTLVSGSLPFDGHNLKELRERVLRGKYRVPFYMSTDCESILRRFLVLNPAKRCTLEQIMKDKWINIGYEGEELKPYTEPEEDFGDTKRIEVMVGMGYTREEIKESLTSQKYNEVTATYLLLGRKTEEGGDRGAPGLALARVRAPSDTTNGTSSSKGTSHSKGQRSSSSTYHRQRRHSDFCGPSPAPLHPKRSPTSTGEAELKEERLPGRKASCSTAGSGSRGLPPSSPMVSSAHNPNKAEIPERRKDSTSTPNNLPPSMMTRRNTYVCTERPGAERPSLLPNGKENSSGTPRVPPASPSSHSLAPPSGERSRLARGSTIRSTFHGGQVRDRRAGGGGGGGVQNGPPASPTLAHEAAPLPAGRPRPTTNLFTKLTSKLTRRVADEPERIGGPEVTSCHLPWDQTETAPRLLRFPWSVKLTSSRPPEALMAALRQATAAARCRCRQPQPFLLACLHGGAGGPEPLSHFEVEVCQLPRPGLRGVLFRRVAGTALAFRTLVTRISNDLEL
The following applies: for logFC MARK4: Accession Q96L34-1.

Assay [7] addresses protein kinases (human kinome) (Homo sapiens, UniProt P42684). The settings on record: for logFC: ABL2 (P42684) protein abundance, degrader vs DMSO, down.
The mark [8] stands for this setting: direction down, experiment wp137.
Where [9] appears, read: direction down, experiment wp147, 1 uM.
[10] abbreviates: direction down, experiment wp147, 2 uM.
The mark [11] stands for this setting: direction down, experiment wp147, 4 uM.

protein kinases (human kinome) (Homo sapiens, UniProt P53667), sequence (P53667 whole entry): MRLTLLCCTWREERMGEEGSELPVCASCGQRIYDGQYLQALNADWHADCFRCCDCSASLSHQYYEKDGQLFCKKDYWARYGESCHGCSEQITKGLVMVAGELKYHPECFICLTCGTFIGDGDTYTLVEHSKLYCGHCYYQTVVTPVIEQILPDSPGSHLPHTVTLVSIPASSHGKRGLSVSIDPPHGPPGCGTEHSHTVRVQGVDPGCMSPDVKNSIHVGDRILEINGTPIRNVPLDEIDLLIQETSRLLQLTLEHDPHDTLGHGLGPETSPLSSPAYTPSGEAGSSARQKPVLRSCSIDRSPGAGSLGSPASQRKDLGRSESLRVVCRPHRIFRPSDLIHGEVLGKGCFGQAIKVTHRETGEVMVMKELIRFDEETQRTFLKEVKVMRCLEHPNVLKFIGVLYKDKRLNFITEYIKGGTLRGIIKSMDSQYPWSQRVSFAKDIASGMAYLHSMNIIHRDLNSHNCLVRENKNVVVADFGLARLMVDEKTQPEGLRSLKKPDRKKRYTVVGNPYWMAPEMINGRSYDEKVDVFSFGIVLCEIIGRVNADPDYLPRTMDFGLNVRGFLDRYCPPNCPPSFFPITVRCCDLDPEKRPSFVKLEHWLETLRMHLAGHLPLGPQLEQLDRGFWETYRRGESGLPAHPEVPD
protein kinases (human kinome) (Homo sapiens, UniProt P42684), sequence (P42684 whole entry): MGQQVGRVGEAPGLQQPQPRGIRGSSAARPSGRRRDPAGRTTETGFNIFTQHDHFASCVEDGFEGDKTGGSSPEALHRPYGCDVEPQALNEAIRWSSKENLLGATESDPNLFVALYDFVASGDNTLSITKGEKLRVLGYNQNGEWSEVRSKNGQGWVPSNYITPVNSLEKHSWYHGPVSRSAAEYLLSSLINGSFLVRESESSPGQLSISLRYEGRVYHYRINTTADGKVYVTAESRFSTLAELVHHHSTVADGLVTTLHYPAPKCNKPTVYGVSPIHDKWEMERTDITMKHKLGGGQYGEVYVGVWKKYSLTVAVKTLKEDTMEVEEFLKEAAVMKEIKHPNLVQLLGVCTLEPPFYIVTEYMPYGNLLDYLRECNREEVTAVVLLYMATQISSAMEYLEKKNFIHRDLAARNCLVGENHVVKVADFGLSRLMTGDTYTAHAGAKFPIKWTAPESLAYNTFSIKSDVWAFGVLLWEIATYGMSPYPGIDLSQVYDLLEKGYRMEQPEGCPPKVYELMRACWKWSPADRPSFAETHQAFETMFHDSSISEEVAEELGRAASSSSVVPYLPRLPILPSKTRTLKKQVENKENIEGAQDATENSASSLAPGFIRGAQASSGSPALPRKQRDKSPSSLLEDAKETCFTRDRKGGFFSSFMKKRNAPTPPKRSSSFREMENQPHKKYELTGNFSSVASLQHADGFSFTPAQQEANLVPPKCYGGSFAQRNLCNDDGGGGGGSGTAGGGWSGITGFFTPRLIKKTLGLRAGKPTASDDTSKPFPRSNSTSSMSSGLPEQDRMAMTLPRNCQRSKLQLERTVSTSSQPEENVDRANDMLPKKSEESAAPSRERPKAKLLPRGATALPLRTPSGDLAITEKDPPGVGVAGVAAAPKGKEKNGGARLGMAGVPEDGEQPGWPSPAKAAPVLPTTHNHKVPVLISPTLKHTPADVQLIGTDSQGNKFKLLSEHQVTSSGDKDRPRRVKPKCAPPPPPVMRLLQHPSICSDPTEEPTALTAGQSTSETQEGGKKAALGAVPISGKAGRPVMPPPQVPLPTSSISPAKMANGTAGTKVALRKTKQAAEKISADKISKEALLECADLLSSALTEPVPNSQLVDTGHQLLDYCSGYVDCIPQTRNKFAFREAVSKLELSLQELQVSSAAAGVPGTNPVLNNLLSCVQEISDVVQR
protein kinases (human kinome) (Homo sapiens, UniProt Q16539), sequence (Q16539 whole entry): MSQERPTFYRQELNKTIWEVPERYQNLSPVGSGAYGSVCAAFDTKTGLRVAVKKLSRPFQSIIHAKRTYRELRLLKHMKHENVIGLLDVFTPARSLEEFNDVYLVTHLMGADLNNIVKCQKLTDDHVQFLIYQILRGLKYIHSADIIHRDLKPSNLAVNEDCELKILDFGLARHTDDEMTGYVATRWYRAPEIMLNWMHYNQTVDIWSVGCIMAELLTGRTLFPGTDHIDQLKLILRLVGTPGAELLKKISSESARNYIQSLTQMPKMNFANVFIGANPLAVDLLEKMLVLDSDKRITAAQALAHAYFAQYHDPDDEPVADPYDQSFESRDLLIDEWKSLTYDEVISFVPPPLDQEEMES
protein kinases (human kinome) (Homo sapiens, UniProt Q00537), sequence (Q00537 whole entry): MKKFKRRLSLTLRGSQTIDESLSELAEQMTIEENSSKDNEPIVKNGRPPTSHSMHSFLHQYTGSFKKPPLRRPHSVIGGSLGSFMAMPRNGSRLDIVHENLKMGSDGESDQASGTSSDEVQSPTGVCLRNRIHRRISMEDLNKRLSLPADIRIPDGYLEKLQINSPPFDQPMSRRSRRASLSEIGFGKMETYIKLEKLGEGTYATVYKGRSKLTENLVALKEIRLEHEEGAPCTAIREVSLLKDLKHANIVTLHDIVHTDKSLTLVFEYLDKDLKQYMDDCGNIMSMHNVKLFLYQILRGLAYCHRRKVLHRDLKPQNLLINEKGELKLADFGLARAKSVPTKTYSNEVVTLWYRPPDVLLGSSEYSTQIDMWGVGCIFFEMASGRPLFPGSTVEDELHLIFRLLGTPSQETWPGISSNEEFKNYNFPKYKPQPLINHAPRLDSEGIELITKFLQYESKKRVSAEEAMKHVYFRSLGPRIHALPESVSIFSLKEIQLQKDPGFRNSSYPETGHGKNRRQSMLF
protein kinases (human kinome) (Homo sapiens, UniProt P50613), sequence (P50613 whole entry): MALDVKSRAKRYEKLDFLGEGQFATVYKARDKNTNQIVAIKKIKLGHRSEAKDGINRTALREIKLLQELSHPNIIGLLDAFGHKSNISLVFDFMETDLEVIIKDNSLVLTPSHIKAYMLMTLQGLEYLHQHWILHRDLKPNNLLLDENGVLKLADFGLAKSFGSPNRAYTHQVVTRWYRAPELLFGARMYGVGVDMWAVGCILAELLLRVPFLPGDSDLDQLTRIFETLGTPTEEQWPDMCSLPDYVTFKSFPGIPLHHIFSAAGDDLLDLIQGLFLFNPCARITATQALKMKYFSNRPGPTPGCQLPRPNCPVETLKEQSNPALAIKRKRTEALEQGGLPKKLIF

`CC(C)(C)c1nc(-c2cccc(NS(=O)(=O)c3c(F)cccc3F)c2F)c(-c2ccnc(NCCOCCNC(=O)CCOCCOCCNc3cccc4c3CN(C3CCC(=O)NC3=O)C4=O)n2)s1` (centres unmarked) [DD.03.107]: the “logFC LIMK1” value in assay [1] (direction down, experiment wp056) is −0.9594; in assay [1] (setting [8]) it was −1.222; in assay [1] (setting [9]) it was −0.9691; in assay [1] (setting [10]), −1.375; in assay [1] (setting [11]), −1.536; in assay [1] (experiment wp056, down), −0.9594. The “logFC LIMK1” value in assay [1] (experiment wp137, down) is recorded as −1.222; in assay [1] (experiment wp147, 1 uM, down) it was −0.9691; in assay [1] (experiment wp147, 2 uM, down), −1.375; in assay [1] (experiment wp147, 4 uM, down), −1.536.
Regarding `CS(=O)(=O)Nc1cccc(-c2csc3cnc(Nc4ccc(N5CCN(CCCCCOc6cccc7c6C(=O)N(C6CCC(=O)NC6=O)C7=O)CC5)cc4)nc23)c1` (centres unmarked) [DB0614, N-(3-(2-((4-(4-(5-((2-(2,6-Dioxopiperidin-3-yl)-1,3-dioxoisoindolin-4-yl)oxy)pentyl)piperazin-1-yl)phenyl)amino)thieno[3,2-d]pyrimidin-7-yl)phenyl)methanesulfonamide], the “logFC STK17B (O94768)” value in assay [2] (Experiment wp045) is −0.9829; in assay [2] (Experiment wp117) it was −0.7771. The logFC in assay [2] (experiment wp045) is reported as −0.9829; in assay [2] (experiment wp117), −0.7771.
Regarding `CC(C)(C)c1nc(-c2cccc(NS(=O)(=O)c3c(F)cccc3F)c2F)c(-c2ccnc(NCCOCCNC(=O)CCOCCOCCNc3cccc4c3C(=O)N(C3CCC(=O)NC3=O)C4=O)n2)s1` (centres unmarked) [DD.03.106], the “logFC LIMK1” value in assay [1] (direction down, experiment wp047) is listed as −1.637; in assay [1] (setting [8]) it was −1.981; in assay [1] (setting [9]) it was −2.959; in assay [1] (setting [10]) it was −2.2; in assay [1] (setting [11]), −0.637; in assay [1] (experiment wp047, down) it was −1.637. In addition, the “logFC LIMK1” value was −1.981 in assay [1] (experiment wp137, down); −2.959 in assay [1] (experiment wp147, 1 uM, down); −2.2 in assay [1] (experiment wp147, 2 uM, down); −0.637 in assay [1] (experiment wp147, 4 uM, down). Moreover, the “logFC of CDK17” value is reported as −0.72 in assay [3] (experiment wp047); −0.7615 in assay [3] (experiment wp147, 1 uM); −0.6232 in assay [3] (experiment wp147, 4 uM). The “logFC CDK17 (Q00537)” value was −0.72 in assay [3] (experiment wp047); −0.7615 in assay [3] (experiment wp147, 1 uM); −0.8288 in assay [3] (experiment wp147, 2 uM); −0.6232 in assay [3] (experiment wp147, 4 uM).
With `Cc1ccc(C(=O)Nc2ccc(CN3CCN(CCOCCOCCNC(=O)CNc4cccc5c4C(=O)N(C4CCC(=O)NC4=O)C5=O)CC3)c(C(F)(F)F)c2)cc1C#Cc1cnc2cccnn12` (centres unmarked) [TL13.150], the logFC in assay [4] was −0.3738. For the same compound, the “logFC MAPK14” value in assay [4] (experiment wp081) is −0.3738.
As to `Cc1ncsc1-c1ccc([C@H](C)NC(=O)[C@@H]2C[C@@H](O)CN2C(=O)[C@@H](NC(=O)CCOCCOCCN2CCN(c3ccc(Nc4ncc(Cl)c(Nc5ccccc5S(=O)(=O)C(C)C)n4)cc3)CC2)C(C)(C)C)cc1` [FMF.06.098.1], the logFC in assay [5] was −0.9016 and −1.137 and −0.9756. In addition, the “logFC CDK7” value in assay [5] (experiment wp108) is reported as −0.9016; in assay [5] (experiment wp114), −1.137; in assay [5] (experiment wp131), −0.9756. Further, the “logFC MARK4” value is reported as −0.9041 in assay [6] (experiment wp108), −0.7224 in assay [6] (experiment wp114) and −1.111 in assay [6] (experiment wp131). Besides, the “logFC MARK4 (Q96L34-1)” value in assay [6] (Experiment wp108) is listed as −0.9041; in assay [6] (experiment wp114) it was −0.7224; in assay [6] (experiment wp131) it was −1.111.
As for `Cc1ccc(NC(=O)c2cccc(C(F)(F)F)c2)cc1N1Cc2cnc(Nc3ccc(N4CCN(CCCCCCOc5cccc6c5C(=O)N(C5CCC(=O)NC5=O)C6=O)CC4)nc3)nc2N(C)C1=O` (centres unmarked) [DB0663], the logFC in assay [4] is recorded as −0.6293; in assay [7], −0.6022. In addition, the “logFC MAPK14” value in assay [4] (experiment wp045) was −0.6293. Besides, the “logFC ABL2 (P42684)” value in assay [7] (Experiment wp045) is listed as −0.6022.
As for `CS(=O)(=O)Nc1cccc(-c2csc3cnc(Nc4ccc(N5CCN(CCOCCOCCOc6cccc7c6C(=O)N(C6CCC(=O)NC6=O)C7=O)CC5)cc4)nc23)c1` (centres unmarked) [RSS0628], the “logFC STK17B (O94768)” value in assay [2] (Experiment wp045) is −1.075. Besides, in assay [2] (experiment wp045), the logFC is given as −1.075.
`CC(C)S(=O)(=O)c1ccccc1Nc1nc(Nc2ccc(N3CCN(CCOCCNC(=O)CNc4ccc5c(c4)C(=O)N(C4CCC(=O)NC4=O)C5=O)CC3)cc2)ncc1Cl` (centres unmarked) [SK.3.93] gave a logFC in assay [5] of −0.8057. The “logFC CDK7” value in assay [5] (experiment wp016) is −0.8057. Moreover, the logFC in assay [7] is on record as −0.5278. For the same compound, the “logFC ABL2 (P42684)” value in assay [7] (experiment wp016) was −0.5278. In assay [3] (experiment wp016), the “logFC of CDK17” value is given as −0.7103 and the “logFC CDK17 (Q00537)” value is reported as −0.7103.
In the case of `Nc1ncnc2c1c(-c1ccc(Oc3ccccc3)cc1)nn2[C@H]1CC[C@H](N2CCN(CCOCCNC(=O)CNc3cccc4c3C(=O)N(C3CCC(=O)NC3=O)C4=O)CC2)CC1` (some centres unmarked) [SB1.G.181], the “logFC LIMK1” value is reported as −0.686 in assay [1] (direction down, experiment wp071) and −0.686 in assay [1] (experiment wp071, down). The compound also yielded a logFC in assay [7] of −2.405. The “logFC ABL2 (P42684)” value in assay [7] (experiment wp071) is reported as −2.405.
`Nc1ncc(-c2ccc(S(=O)(=O)N(CCCNC(=O)CCOCCOCCOCCOCCOCCNc3cccc4c3C(=O)N(C3CCC(=O)NC3=O)C4=O)C3CC3)cc2)cc1-c1ccc2c(c1)CCNC2=O` (centres unmarked) [WH.10417.099]: the “logFC STK17B (O94768)” value in assay [2] (Experiment wp056) was −1.507; in assay [2] (Experiment wp103), −1.292; in assay [2] (Experiment wp105) it was −0.7924; in assay [2] (Experiment wp107), −1.472; in assay [2] (Experiment wp172), −1.234. Also, the logFC in assay [2] (experiment wp056) was −1.507; in assay [2] (experiment wp103), −1.292; in assay [2] (experiment wp105), −0.7924; in assay [2] (experiment wp107), −1.472; in assay [2] (experiment wp172), −1.234.
As for `CC(C)S(=O)(=O)c1ccccc1Nc1nc(Nc2ccc(N3CCN(CCOCCOCCC(=O)NCCNc4cccc5c4CN(C4CCC(=O)NC4=O)C5=O)CC3)cc2)ncc1Cl` (centres unmarked) [TL13.97], the figures for the logFC in assay [5] and in assay [7] were −1.05 and −0.5116, respectively. Further, in assay [5] (experiment wp137), the “logFC CDK7” value is reported as −1.05. For the same compound, the “logFC LIMK1” value in assay [1] (setting [8]) is −1.173; in assay [1] (experiment wp137, down), −1.173. The “logFC MARK4” value in assay [6] (experiment wp137) is −1.74. Also, the “logFC MARK4 (Q96L34-1)” value in assay [6] (experiment wp137) is on record as −1.74. In addition, the “logFC ABL2 (P42684)” value in assay [7] (experiment wp137) was −0.5116.
